The record followed here is patent publication US20260217683A1, “PYRIDAZINONE HETEROCYCLIC COMPOUND MYOSIN II INHIBITOR AND USE THEREOF” (Xizang Haisco Pharmaceutical Co., Ltd., priority 2023, published 2026).

Like-named read-outs stand apart in the source and are kept apart here.

The subject of assay [1] is rabbit skeletal muscle myosin. The assay can be described thus: Inhibition of hydrolysis of ATP by rabbit skeletal muscle myosin. It is filed as biochemical. The method, boiled down:
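Actin-activated ATPase: F-actin plus rabbit skeletal myosin II with compound in Tris-HCl pH 7.5/KCl/EGTA/MgCl2, started with ATP (3 mM working stock) and run 60 min at 37 °C. Released Pi measured by CytoPhos absorbance at 650 nm against a phosphate standard curve; IC50 fitted from inhibition relative to uninhibited myosin.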

The next assay addresses T1, smooth muscle myosin S1 (Gallus gallus, UniProt P10587).
T1 construct: purchased Cytoskeleton #CS-MYS05
The assay can be described thus: Inhibition of hydrolysis of ATP by smooth muscle myosin S1 fragments. The class given is biochemical. The settings on record: 100 μM compound. The method, boiled down:
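Smooth muscle myosin S1 fragment (0.7 mg/mL in PM12 buffer with 1 mM DTT) was mixed with compound and F-actin polymer prepared from cardiac actin, then 5 mM ATP working solution started the reaction at 37° C. for 20 min. Released Pi was measured with CytoPhos reagent at 650 nm against a standard curve, and inhibition was calculated relative to positive control wells.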

The next assay has as its target T2, CYP2C9 (Homo sapiens, UniProt P11712).
T2 construct: incubated with human liver microsomes and test compounds of different concentrations; from tissue; host or cells: human liver microsomes
The assay can be described thus: CYP450 enzyme inhibition, human liver microsomes, CYP2C9. The class given is in vitro ADME. Summed up:
(§1)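 Human liver microsomes were incubated with isoform-specific probe substrates and a range of test compound concentrations, with the reaction started by NADPH. Probe metabolites were quantified by LC-MS/MS to derive enzyme activity, and IC50 values were calculated per isoform.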
Background: Microsomes from liver hold many membrane-bound enzymes, among them those of drug oxidation.

Another assay addresses T3, CYP2D6 (Homo sapiens, UniProt P10635).
T3 construct: incubated with human liver microsomes and test compounds of different concentrations; from tissue; host or cells: human liver microsomes
Briefly: CYP450 enzyme inhibition, human liver microsomes, CYP2D6. The class given is in vitro ADME. Summed up: as §1

A further assay addresses T4, CYP3A4 (Homo sapiens, UniProt P08684).
T4 construct: incubated with human liver microsomes and test compounds of different concentrations; from tissue; host or cells: human liver microsomes
The assay can be described thus: CYP450 enzyme inhibition, human liver microsomes, CYP3A4. The class given is in vitro ADME. The method, boiled down: as §1

Where [2] appears, read: inhibition of hydrolysis of ATP, class symbols, read-out: Rabbit skeletal muscle myosin (IC50).
Where [3] appears, read: read-out: IC50 for inhibition of hydrolysis of ATP by rabbit skeletal muscle myosin.

T4 sequence (P08684 whole entry): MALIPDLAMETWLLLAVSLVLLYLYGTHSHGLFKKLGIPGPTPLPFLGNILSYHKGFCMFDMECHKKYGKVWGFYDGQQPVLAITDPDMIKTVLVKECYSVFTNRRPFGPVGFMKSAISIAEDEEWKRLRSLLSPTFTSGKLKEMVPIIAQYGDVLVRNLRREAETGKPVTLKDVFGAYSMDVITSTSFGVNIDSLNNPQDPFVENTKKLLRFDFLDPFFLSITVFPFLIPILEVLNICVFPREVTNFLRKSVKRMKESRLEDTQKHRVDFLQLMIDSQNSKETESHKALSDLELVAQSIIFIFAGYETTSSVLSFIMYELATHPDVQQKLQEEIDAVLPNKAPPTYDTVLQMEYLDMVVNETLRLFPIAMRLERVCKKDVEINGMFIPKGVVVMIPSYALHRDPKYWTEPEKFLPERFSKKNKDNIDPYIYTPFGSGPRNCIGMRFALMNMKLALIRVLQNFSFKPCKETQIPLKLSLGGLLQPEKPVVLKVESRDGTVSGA
T1 sequence (P10587 84-789 limits assumed): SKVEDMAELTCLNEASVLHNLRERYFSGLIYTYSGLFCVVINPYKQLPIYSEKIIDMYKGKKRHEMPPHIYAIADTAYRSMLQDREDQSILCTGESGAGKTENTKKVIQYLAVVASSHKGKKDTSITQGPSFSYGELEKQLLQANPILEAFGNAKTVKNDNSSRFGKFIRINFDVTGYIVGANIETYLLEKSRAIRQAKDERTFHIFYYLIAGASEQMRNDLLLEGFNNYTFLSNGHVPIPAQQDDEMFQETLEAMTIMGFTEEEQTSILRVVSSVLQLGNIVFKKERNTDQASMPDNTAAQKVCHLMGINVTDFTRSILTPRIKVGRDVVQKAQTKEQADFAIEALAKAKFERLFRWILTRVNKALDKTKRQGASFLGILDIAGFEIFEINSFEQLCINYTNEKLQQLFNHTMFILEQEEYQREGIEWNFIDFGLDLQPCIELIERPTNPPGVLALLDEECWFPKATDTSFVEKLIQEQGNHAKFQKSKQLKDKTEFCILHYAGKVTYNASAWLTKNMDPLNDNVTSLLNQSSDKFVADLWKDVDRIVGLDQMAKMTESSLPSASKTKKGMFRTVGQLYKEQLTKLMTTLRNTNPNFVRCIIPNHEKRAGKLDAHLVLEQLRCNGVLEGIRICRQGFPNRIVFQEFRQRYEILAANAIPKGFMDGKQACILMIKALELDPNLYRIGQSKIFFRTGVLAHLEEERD
T1 sequence (P02607 whole entry partner): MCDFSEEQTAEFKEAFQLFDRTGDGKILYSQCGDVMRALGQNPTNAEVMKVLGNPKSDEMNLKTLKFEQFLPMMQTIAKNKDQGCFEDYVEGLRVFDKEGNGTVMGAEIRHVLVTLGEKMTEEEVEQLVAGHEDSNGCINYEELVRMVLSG
T2 sequence (P11712 whole entry): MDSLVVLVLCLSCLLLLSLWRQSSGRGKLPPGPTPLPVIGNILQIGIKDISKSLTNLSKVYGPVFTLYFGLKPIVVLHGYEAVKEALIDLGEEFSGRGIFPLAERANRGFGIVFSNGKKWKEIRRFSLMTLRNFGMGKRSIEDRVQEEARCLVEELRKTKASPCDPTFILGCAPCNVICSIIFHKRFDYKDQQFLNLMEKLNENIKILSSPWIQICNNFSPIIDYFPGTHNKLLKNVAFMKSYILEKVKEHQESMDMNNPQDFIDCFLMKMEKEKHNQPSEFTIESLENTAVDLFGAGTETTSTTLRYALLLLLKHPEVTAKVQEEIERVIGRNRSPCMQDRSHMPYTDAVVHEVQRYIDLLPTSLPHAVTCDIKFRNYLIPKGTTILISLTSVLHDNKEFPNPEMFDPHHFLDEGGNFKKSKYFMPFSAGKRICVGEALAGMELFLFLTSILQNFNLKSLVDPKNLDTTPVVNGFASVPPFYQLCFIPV
T3 sequence (P10635 whole entry): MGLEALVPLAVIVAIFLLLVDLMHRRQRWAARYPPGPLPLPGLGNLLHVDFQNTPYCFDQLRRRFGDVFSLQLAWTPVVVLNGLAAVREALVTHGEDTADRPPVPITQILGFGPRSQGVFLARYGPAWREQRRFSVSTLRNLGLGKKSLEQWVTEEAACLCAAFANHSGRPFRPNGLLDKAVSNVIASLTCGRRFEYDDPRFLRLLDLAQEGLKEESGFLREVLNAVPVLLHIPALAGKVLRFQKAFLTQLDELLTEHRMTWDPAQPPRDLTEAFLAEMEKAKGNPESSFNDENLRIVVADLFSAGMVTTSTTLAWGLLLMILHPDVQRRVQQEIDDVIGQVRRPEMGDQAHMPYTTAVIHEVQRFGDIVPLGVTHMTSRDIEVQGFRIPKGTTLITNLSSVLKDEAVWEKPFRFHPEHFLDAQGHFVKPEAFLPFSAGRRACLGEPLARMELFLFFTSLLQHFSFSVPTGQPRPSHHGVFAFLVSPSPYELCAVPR

Turning to `O=C1CCc2ccc(Cn3nc(-c4cnc(OC5COCC5(F)F)nc4)ccc3=O)cc21` (stereo not drawn) [Compound 164], the IC50 in assay [1] (setting [2]) is below 2500 nM; on CYP2C9, above 30 µM; on CYP2D6, above 30 µM; against CYP3A4, above 30 µM. The inhibition at 100 µM against smooth muscle myosin S1 came out at 17%.

For `O=C1CCc2ccc(Cn3nc(-c4cnc(O[C@@H]5CCOC5)nc4)ccc3=O)cc21` [Compound 149], the IC50 in assay [1] (setting [2]) was below 2500 nM; against CYP2C9, above 30 µM; against CYP2D6, above 30 µM; on CYP3A4, above 30 µM. Moreover, the inhibition at 100 µM on smooth muscle myosin S1 came out at 2%.

`O=C1CCc2ccc(Cn3nc(-c4cnc(OC5CC(F)(F)C5)nc4)ccc3=O)cc21` [Compound 141]: the IC50 is below 2500 nM in assay [1] (setting [2]); 800 nM in assay [1] (setting [3]); above 30 µM against CYP2C9; above 30 µM on CYP2D6; above 30 µM at CYP3A4. Besides, the inhibition at 100 µM against smooth muscle myosin S1 worked out at 3%.

For the molecule `O=C1CCc2c(F)cc(Cn3nc(-c4cnc(OCC(F)F)nc4)ccc3=O)cc21` [Compound 167], the IC50 is below 2500 nM in assay [1] (setting [2]); 270 nM in assay [1] (setting [3]); above 30 µM on CYP2C9; above 30 µM against CYP2D6; above 30 µM against CYP3A4. Besides, the inhibition at 100 µM against smooth muscle myosin S1 came to 17%.

Take `O=C1CCc2ccc(Cn3nc(-c4cnc(Oc5cncc(Cl)c5)nc4)ccc3=O)cc21` [Compound 151]: the IC50 is below 2500 nM in assay [1] (setting [2]); 700 nM in assay [1] (setting [3]); above 30 µM against CYP2C9; above 30 µM on CYP2D6; above 30 µM against CYP3A4. Further, the inhibition at 100 µM against smooth muscle myosin S1 was 2%.

With `O=C1CCc2ccc(Cn3nc(-c4cnc(OCC(F)F)nc4)ccc3=O)cc21` [Compound 131], the IC50 was below 2500 nM in assay [1] (setting [2]); 400 nM in assay [1] (setting [3]); above 30 µM against CYP2C9; above 30 µM against CYP2D6; above 30 µM at CYP3A4. Besides, the inhibition at 100 µM against smooth muscle myosin S1 is -9%.

For `O=c1ccc(-c2cnc(OCC(F)(F)F)nc2)nn1Cc1ccc2c(c1)CCC2` [Compound 57], the values for the IC50 in assay [1] (setting [2]) and in assay [1] (setting [3]) were below 2500 nM and 330 nM, respectively. Further, the inhibition at 100 µM against smooth muscle myosin S1 was determined as 3.3%.

As to `O=C1CCc2ccc(Cn3nc(-c4cnc(OCC(F)(F)F)nc4)ccc3=O)cc21` [Compound 88], the IC50 is below 2500 nM in assay [1] (setting [2]); 800 nM in assay [1] (setting [3]); above 30 µM at CYP2C9; above 30 µM on CYP2D6; above 30 µM at CYP3A4.

For the molecule `N#CC1(COc2ncc(-c3ccc(=O)n(Cc4ccc5c(c4)C(=O)CC5)n3)cn2)CC1` [Compound 158], the IC50 in assay [1] (setting [2]) is below 2500 nM; on CYP2C9, above 30 µM; on CYP2D6 it was above 30 µM; against CYP3A4, above 30 µM. For the same molecule, the inhibition at 100 µM on smooth muscle myosin S1 was 13%.

Regarding `O=C1CCc2c(F)cc(Cn3nc(-c4cnc(O[C@H]5CCOC5)nc4)ccc3=O)cc21` [Compound 165], the IC50 was 2500 to 20000 nM in assay [1] (setting [2]), above 30 µM on CYP2C9, above 30 µM against CYP2D6 and above 30 µM on CYP3A4. Also, the inhibition at 100 µM against smooth muscle myosin S1 was found to be 12%.

In the case of `O=C1CCc2ccc(Cn3nc(-c4cnc(O[C@H]5CCOC5)nc4)ccc3=O)cc21` [Compound 150], in assay [1] (setting [2]), the IC50 was below 2500 nM. Also, at smooth muscle myosin S1, the inhibition at 100 µM was 4%.

For orientation: IC50 means the midpoint of a concentration-inhibition curve. By inhibition is commonly meant the change of the read-out against control, counted positive when it falls.
